Assay results: US11110103B2, “Inhibitors of glucocorticoid receptor” (ORIC Pharmaceuticals, Inc., priority 2015, dated 2021)

Experiments:
AR = assay: In Vitro AR Agonism Assay (LNAR reporter cell line); type: cell-based; details: for Relative Maximum Response to Mifepristone: LNAR cells, RPMI + 10% CSS, 18-24 hrs, maximum response of Mifepristone set to 1
Protocol: Example 6: In Vitro AR Agonism Assay
The AR agonism assay was done in the LNAR reporter cell line which has overexpressed AR and 4XARE-Luc genes. This cell line is sensitive to even minor partial AR agonism activity in hormone-deprived media (CSS). The assays were done in RPMI (without phenol red)+10% CSS using 6000 LNAR cells/well in 384-well plates and compounds were incubated with cells in […] incubator for 18-24 hrs. OneGlo reagent (25 uL/well) was added and plates were read with luminometer within 3 minutes.
To gauge the AR partial agonism activity, Mifepristone is included as a standard in the assay. AR agonism assay results are quantified by determining the ratio of the maximum response of individual compounds to the maximum response of Mifepristone (arbitrarily set to 1). Values of Table 3 are reported as Relative Maximum Response to Mifepristone. This general trend of AR agonism was shown for the class of compounds described herein.

GR = molecular target: T1, GR (Homo sapiens, UniProt P04150); assay: In Vitro GR Luciferase Reporter Assay (antagonist assay); type: cell-based; details: CHO-K1-GR-MMTV-Luc reporter cells, 10 nM Dexamethasone, 18-24 hours
T1 construct: expressed in transfected cells; host or cells: CHO-K1 (CHO-K1-GR-MMTV-Luc reporter cells)
T1 sequence (P04150 1-777): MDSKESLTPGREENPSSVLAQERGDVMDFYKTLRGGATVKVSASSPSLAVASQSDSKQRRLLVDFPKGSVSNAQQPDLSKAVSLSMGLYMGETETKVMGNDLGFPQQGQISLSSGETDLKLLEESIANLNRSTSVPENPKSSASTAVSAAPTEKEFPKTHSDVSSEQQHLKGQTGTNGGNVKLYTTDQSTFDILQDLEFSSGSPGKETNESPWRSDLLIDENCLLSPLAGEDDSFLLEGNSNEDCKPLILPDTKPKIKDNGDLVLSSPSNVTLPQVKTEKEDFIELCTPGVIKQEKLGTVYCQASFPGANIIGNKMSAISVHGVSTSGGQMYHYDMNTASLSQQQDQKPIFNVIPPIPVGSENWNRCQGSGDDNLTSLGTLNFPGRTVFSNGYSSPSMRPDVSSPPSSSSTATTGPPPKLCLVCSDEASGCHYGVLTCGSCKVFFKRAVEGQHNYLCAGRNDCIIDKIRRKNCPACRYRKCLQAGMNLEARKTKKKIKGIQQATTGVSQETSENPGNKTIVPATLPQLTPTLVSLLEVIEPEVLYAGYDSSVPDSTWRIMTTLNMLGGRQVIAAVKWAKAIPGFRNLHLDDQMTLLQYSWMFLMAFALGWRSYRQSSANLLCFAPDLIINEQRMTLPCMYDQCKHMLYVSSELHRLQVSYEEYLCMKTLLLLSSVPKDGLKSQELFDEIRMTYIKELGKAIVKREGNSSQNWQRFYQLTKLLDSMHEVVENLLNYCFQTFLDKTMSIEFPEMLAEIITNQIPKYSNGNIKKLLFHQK
Protocol: Cell Line: CHO-K1-GR-MMTV-Luc reporter cells
Culture Media: DMEM (with phenol red)+10% FBS
Assay Media: DMEM (without phenol red)+10% CSS
Culture CHO-K1-GR-MMTV-Luc reporter cells in 15 cm plates in Culture Media at conditions less than 90% confluence.
Prepare 200×DMSO 1:5 serial dilutions of control and test compounds in 96-well non-sterile V bottom plate in DMSO, 8 serial dilutions for each compound.
Add compounds: 5 ul of assay media diluted compounds were added to appropriate wells and followed a quick spin (1000 rpm, 10 sec) to bring media and cells to the bottom of plate. The plates were covered with SealMate film to avoid evaporation and placed in 37° C. incubator for approximately 18-24 hours.
Read plates: Equilibrate appropriate amount of Promega OneGlo luciferase reagent to room temperature. Remove the plates from incubator and add 25 uL of OneGlo reagent/well by multiple channel pipette and read the plates with Tecan F500 luminometer within 3 minutes.
The ability of the compounds disclosed herein to inhibit GR activity was quantified and the respective IC50 value was determined.

IC50 (GR) [nM] | Structure (SMILES) | Relative Maximum Response to Mifepristone (AR) | also measured
– | CC#C[C@]1(O)CC[C@H]2[C@@H]3CCC4=CC(=O)CCC4=C3[C@@H](c3cc(F)c(C)c(F)c3)C[C@@]21C [drawing 252] | A (A: ≤0.4) | –
– | CC#C[C@]1(O)CC[C@H]2[C@@H]3CCC4=CC(=O)CCC4=C3[C@@H](c3ccc(Cl)c(OC)c3)C[C@@]21C [drawing 251] | A (A: ≤0.4) | –
– | CC#C[C@]1(O)CC[C@H]2[C@@H]3CCC4=CC(=O)CCC4=C3[C@@H](c3ccc(S(=O)(=O)N4CCCCC4)cc3)C[C@@]21C [drawing 241] | A (A: ≤0.4) | –
– | CC#C[C@]1(O)[C@H](C)C[C@H]2[C@@H]3CCC4=CC(=O)CCC4=C3[C@@H](c3ccc(N4CCOC[C@H]4C)cc3)C[C@@]21C [drawing 256] | B (B: >0.4) | –
– | CC#C[C@]1(O)[C@H](CC)C[C@H]2[C@@H]3CCC4=CC(=O)CCC4=C3[C@@H](c3ccc(N(C)C)cc3)C[C@@]21C [drawing 254] | A (A: ≤0.4) | –
– | CC#C[C@]1(O)CC[C@H]2[C@@H]3CCC4=CC(=O)CCC4=C3[C@@H](c3cc(F)cc(F)c3)C[C@@]21C [drawing 246] | A (A: ≤0.4) | –
– | CC#C[C@]1(O)CC[C@H]2[C@@H]3CCC4=CC(=O)CCC4=C3[C@@H](c3ccc(C)c(C)c3)C[C@@]21C [drawing 245] | A (A: ≤0.4) | –
– | CC#C[C@]1(O)CC[C@H]2[C@@H]3CCC4=CC(=O)CCC4=C3[C@@H](c3cccc(OCC)c3)C[C@@]21C [drawing 244] | A (A: ≤0.4) | –
– | CC#C[C@]1(O)CC[C@H]2[C@@H]3CCC4=CC(=O)CCC4=C3[C@@H](c3cccc(C(C)C)c3)C[C@@]21C [drawing 243] | A (A: ≤0.4) | –
– | CC#C[C@]1(O)CC[C@H]2[C@@H]3CCC4=CC(=O)CCC4=C3[C@@H](c3ccc(N(C)C)cc3)C[C@@]21C [Mifepristone, reference compound] | – | AR partial agonism (AR; in concentrations as low as 10 nM): strong partial AR agonism
< 100 | CC#C[C@]1(O)CC[C@H]2[C@@H]3CCC4=CC(=O)CCC4=C3[C@@H](c3cccc(C4CC4)c3)C[C@@]21C | – | –
– | CC#C[C@]1(O)CC[C@H]2[C@@H]3CCC4=CC(=O)CCC4=C3[C@@H](c3ccc(F)c(C#N)c3)C[C@@]21C [drawing 247] | B (B: >0.4) | –
– | CC#C[C@]1(O)[C@H](C)C[C@H]2[C@@H]3CCC4=CC(=O)CCC4=C3[C@@H](c3ccc(S(=O)(=O)N4CCCCC4)cc3)C[C@@]21C [drawing 255] | A (A: ≤0.4) | –
< 100 | CC#C[C@]1(O)[C@H](C)C[C@H]2[C@@H]3CCC4=CC(=O)CCC4=C3[C@@H](c3cc(F)c(N(C)C)c(F)c3)C[C@@]21C | – | –
< 100 | CC#C[C@]1(O)CC[C@H]2[C@@H]3CCC4=CC(=O)CCC4=C3[C@@H](c3cccc(CC)c3)C[C@@]21C | – | –
< 100 | [2H]C([2H])([2H])C#C[C@]1(O)CC[C@H]2[C@@H]3CCC4=CC(=O)CCC4=C3[C@@H](c3ccc4c(c3)OCCO4)C[C@@]21C | – | –

IC50 (GR) [nM] | Structure (SMILES) | Relative Maximum Response to Mifepristone (AR) | also measured
– | CC#C[C@]1(O)CC[C@H]2[C@@H]3CCC4=CC(=O)CCC4=C3[C@@H](c3ccc(C(C)C)c(N(C)C)c3)C[C@@]21C [drawing 249] | A (A: ≤0.4) | –
< 100 | CC#C[C@]1(O)CC[C@H]2[C@@H]3CCC4=CC(=O)CCC4=C3[C@@H](c3ccc4c(c3)OCCCO4)C[C@@]21C | – | –
< 100 | CC#C[C@]1(O)CC[C@H]2[C@@H]3CCC4=CC(=O)CCC4=C3[C@@H](c3ccc(C)c(C)c3)C[C@@]21C [drawing 192] | – | –
> 100 | CC#C[C@]1(O)CC[C@H]2[C@@H]3CCC4=CC(=O)CCC4=C3[C@@H](c3ccc(F)c(N(C)C)c3)C[C@@]21C | – | –
– | CC#C[C@]1(O)CC[C@H]2[C@@H]3CCC4=CC(=O)CCC4=C3[C@@H](c3ccc(Cl)c(C(C)C)c3)C[C@@]21C [drawing 248] | A (A: ≤0.4) | –
< 100 | CC#C[C@]1(O)[C@H](C)C[C@H]2[C@@H]3CCC4=CC(=O)CCC4=C3[C@@H](c3ccc(S(=O)(=O)N(C)C)cc3)C[C@@]21C | – | –
< 100 | CC#C[C@]1(O)CC[C@H]2[C@@H]3CCC4=CC(=O)CCC4=C3[C@@H](c3cccc(COC)c3)C[C@@]21C | – | –
< 100 | CC#C[C@]1(O)CC[C@H]2[C@@H]3CCC4=CC(=O)CCC4=C3[C@@H](c3ccc(C)c(OC)c3)C[C@@]21C | – | –
< 100 | CC#C[C@]1(OC(C)=O)CC[C@H]2[C@@H]3CCC4=CC(=O)CCC4=C3[C@@H](c3cc(F)c(C)c(F)c3)C[C@@]21C | – | –
– | CC#C[C@]1(O)CC[C@H]2[C@@H]3CCC4=CC(=O)CCC4=C3[C@@H](c3ccc(S(=O)(=O)C(C)(C)C)cc3)C[C@@]21C [drawing 242] | A (A: ≤0.4) | –
– | CC#C[C@]1(O)CC[C@H]2[C@@H]3CCC4=CC(=O)CCC4=C3[C@@H](c3ccc4c(c3)OCCO4)C[C@@]21C [drawing 253] | A (A: ≤0.4) | –
< 100 | CC#C[C@]1(O)CC[C@H]2[C@@H]3CCC4=CC(=O)CCC4=C3[C@@H](c3c(F)cc(C)cc3F)C[C@@]21C | – | –
– | CC#C[C@]1(O)CC[C@H]2[C@@H]3CCC4=CC(=O)CCC4=C3[C@@H](c3ccc(N(C)C)c(C(C)C)c3)C[C@@]21C [drawing 250] | A (A: ≤0.4) | –
> 100 | CC#C[C@]1(O)CC[C@H]2[C@@H]3CCC4=CC(=O)CCC4=C3[C@@H](c3ccc(Cl)c(N(C)C)c3)C[C@@]21C | – | –
> 100 | CC#C[C@]1(O)[C@H](CC)C[C@H]2[C@@H]3CCC4=CC(=O)CCC4=C3[C@@H](c3ccccc3)C[C@@]21C | – | –
> 100 | CC#C[C@]1(OC(=O)CC)CC[C@H]2[C@@H]3CCC4=CC(=O)CCC4=C3[C@@H](c3cc(F)c(C)c(F)c3)C[C@@]21C | – | –
